The values below come from ChEMBL document CHEMBL1137837 (Bioorg Med Chem Lett, 2004).

Series [1] is described as follows: Partition coefficient (logD). Type of series: physicochemical. The note with it: octanol/water.
Series [2] has as its target Beta-2 adrenergic receptor (Homo sapiens, UniProt P07550).
Description: Binding affinity for human beta-2 adrenergic receptor
The species named for series [3] is Oryctolagus cuniculus. The series can be described thus: Concentration required to inhibit electrically induced contraction of superfused guinea-pig trachea was determined.
The species named for series [4] is Oryctolagus cuniculus. The series can be described thus: Duration action in guinea pig.

pIC50, pKi: −log10 of the molar value.

Chain of Beta-2 adrenergic receptor (P07550 whole entry, the tested form may be a part): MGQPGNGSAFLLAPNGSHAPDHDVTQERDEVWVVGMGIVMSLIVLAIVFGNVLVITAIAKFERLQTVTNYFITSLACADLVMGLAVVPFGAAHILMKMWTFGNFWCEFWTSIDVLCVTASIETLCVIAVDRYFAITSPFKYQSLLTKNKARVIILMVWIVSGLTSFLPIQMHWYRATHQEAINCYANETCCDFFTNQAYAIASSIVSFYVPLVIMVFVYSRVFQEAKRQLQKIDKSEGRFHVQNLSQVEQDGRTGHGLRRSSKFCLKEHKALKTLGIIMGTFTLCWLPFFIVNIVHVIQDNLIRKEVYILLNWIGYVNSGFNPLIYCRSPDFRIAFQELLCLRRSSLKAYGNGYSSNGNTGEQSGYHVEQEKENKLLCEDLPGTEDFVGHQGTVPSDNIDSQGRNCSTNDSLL

As to `O=CNc1cc([C@@H](O)CNCCc2cccc(OCCCOc3ccccc3)c2)ccc1O`, the logD came out at 2.49 in series [1] and 2 in series [1] (read-out: logD). Moreover, in series [2], the pKi was 8.48. The same compound gave a pIC50 in the series filed under Oryctolagus cuniculus [3] of 6.79. Besides, the Duration in the series listed under Oryctolagus cuniculus [4] was found to be 5.43 h.
On to `O=CNc1cc([C@@H](O)CNCCc2ccc(OC3Cc4ccccc4C3)cc2)ccc1O`, for which the logD in series [1] (read-out: logD) came out at 2.95. The compound further showed a pKi in series [2] of 7.94. The same compound gave a pIC50 in the series listed under Oryctolagus cuniculus [3] of 6.60.
With `O=CNc1cc([C@@H](O)CNCCc2ccc(OCCCCc3ccccc3)cc2)ccc1O`, the logD in series [1] came out at 2.76; in series [1] (read-out: logD), 2.83. This compound also showed a pKi in series [2] of 8.04. Besides, the pIC50 in the series listed under Oryctolagus cuniculus [3] was 7.15. Besides, in the series listed under Oryctolagus cuniculus [4], the Duration is 6.62 h.
As to `O=CNc1cc([C@@H](O)CNCCc2ccc(Oc3ccccc3)cc2)ccc1O`, in series [1] (read-out: logD), the log distribution coefficient (logD) amounted to 1.95. In series [2], this compound showed a pKi of 7.45. This compound also had a pIC50 in the series listed under Oryctolagus cuniculus [3] of 6.92.
The corresponding values for `O=CNc1cc([C@@H](O)CNCCc2ccc(OCCc3ccccc3)cc2)ccc1O` are 1.67, 8.11 and 8.96.
Regarding `O=CNc1cc([C@@H](O)CNCCc2ccc(OCCCc3ccccc3)cc2)ccc1O`, the logD in series [1] (read-out: logD) is 2.35. Further, the pKi in series [2] is 8.23. In addition, the pIC50 in the series listed under Oryctolagus cuniculus [3] was 7.42.
As for `O=CNc1cc([C@@H](O)CNCCc2cccc(OCCCCc3ccccc3)c2)ccc1O`, in series [1] (read-out: logD), the pH-dependent lipophilicity (logD) stood at 2.83. Further, the pKi in series [2] is 8.07. The pIC50 in the series listed under Oryctolagus cuniculus [3] was 6.94.
Compound `OCc1cc(C(O)CNCCCCCCOCCCCc2ccccc2)ccc1O` (stereo unspecified) [SALMETEROL] showed a logD in series [1] of 1.24.

A word on the logD: it is lipophilicity at a set pH, counting ionised and neutral species. As a reminder, the pKi is the Ki on a negative log10 scale, so that one unit is a factor of ten. By pIC50 is commonly meant the negative decadic logarithm of the IC50, by convention in mol/L. Higher therefore signals a low IC50.
